Test [1] deals with D5D. As to the kind of experiment: D5D activity in liver microsomes from STZ-induced diabetic rats. It counts as in vivo, rat. As to conditions: compared to control. How it is done: (§1) The desaturase and elongase enzyme activities in liver microsomes from streptozotocin (STZ)-induced diabetic rats was assayed at 2 and 7 weeks post-induction. Table 1 indicates the decrease in activities compared to a control, observed during the course of the experiment. An equivalent decrease in elongation activity in STZ-induced diabetic rats has been previously reported (Suneja et al., 1990, Biochim. Biophys. Acta, 1042: 81-85).

Test [2] concerns Leukocytes. As to the kind of experiment: Conversion of 18:3n-6 into 20:3n-6 in leukocytes from STZ-induced diabetic rats. It counts as in vivo, rat.
The test system of test [3] is D6D. Briefly: D6D activity in liver microsomes from STZ-induced diabetic rats. It counts as in vivo, rat. To be noted: compared to control. How it is done:
as §1
On the technique in general: Liver microsomes are a subcellular fraction often used to study metabolism.

The test system of test [4] is Leukocytes. Briefly: Conversion of 18:2n-6 into 20:2n-6 in leukocytes from STZ-induced diabetic rats. It counts as in vivo, rat. To be noted: for Conversion of 18:2n-6 into 20:2n-6: leukocytes incubated for 24 h, mean ± S.D. of 6 rats.
Test [5] relates to Elongase. Briefly: Elongase activity in liver microsomes from STZ-induced diabetic rats. It counts as in vivo, rat. To be noted: compared to control. How it is done: as §1
The test system of test [6] is 18:3n-3. As to the kind of experiment: Elongation of [1-14C]18:3n-3 in yeast expressing human elongases (RP-HPLC). As to conditions: untagged elongase; 25 μM substrate; product 20:3n-3.
Excerpt: (§2) For the expression of ELG1, ELG2, ELG3, ELG4, ELG5, ELG6 or ELG7 the yeast were transformed with pTh1009.1, pTh1014.1, pTh1015.1, pTh1021.1, pTh1018.1, pTh1041.1 or pTh1044.1, respectively. For the expression of ELG1/V5-His, ELG2/V5-His, ELG3/V5-His, ELG4/V5-His, ELG5/V5-His, ELG6/V5 -His or ELG7/V5-His the yeast were transformed with pTh1009.2, pTh1014.2, pTh1017.1, pTh1021.2, pTh1019.1, pTh1042.1 or pTh1045.1, respectively. Recombinant yeast cells were selected on SC-U medium.
(§3) Transformed yeast (approximately 3.2×10^6 cells/ml; O.D.600 0.4) were incubated in a 125 ml Erlenmeyer containing 10 ml of SC-U medium with 1% raffinose, 1% tergitol and 25 μM of the lithium salts of either [1-^14C]18:3n-3 (1 μCi), [1-^14C]18:3n-6 (1 μCi), [1-^14C]20:4n-6 (2 μCi), or [1-^14C]20:5n-3 (2 μCi). After 4 h incubation in an orbital incubator at 270 rpm and 30° C., cells reached the log phase and the transgene, expression was induced with galactose 30° C., cells reached the log phase and the transgene expression was induced with galactose (2% final concentration). The yeast were incubated for an additional 19 h and then harvested by centrifugation at 5000×g for 10 minutes at 4° C.
(§4) Cells were washed with Tris-HCl buffer (100 mM, pH 8.0) containing 0.1% BSA and total lipids were extracted as described below. The radioactivity from aliquots of the incubation medium, supernatant and cells was determined by liquid scintillation counting using a LS6500-Scintillation System (Beckman).
(§5) Alternatively, cells were resuspended in 1.5 ml of water and saponified with 2 ml of 10% KOH in ethanol. The total lipid extracts or the free fatty acids from the saponified samples were methylated using boron trifluoride in methanol at 90° C. for 30 min. The resultant methyl esters (FAME) were analyzed as described below.
(§6) Analyses of radiolabelled FAME were carried out on a Hewlett Packard 1090, series II chromatograph equipped with a diode array detector set at 205 nm, a radioisotope detector (model 171, Beckman, CA) with a solid scintillation cartridge (97% efficiency for ^14C-detection) and a reverse phase ODS (C-18) Beckman column (250 mm×4.6 mm i.d.; 5 μm particle size) attached to a pre-column with a μBondapak C-18 (Beckman) insert. FAME were separated isocratically with acetonitrile/water (95.5 v/v) at a flow rate of 1 ml/min and were identified by comparison with authentic standards. Alternatively, the eluted FAME were collected and the solvent evaporated. FAME were re-dissolved in hexane for further analysis by gas chromatography.
The subject of test [7] is 18:3n-6. Briefly: Elongation of [1-14C]18:3n-6 in yeast expressing human elongases (RP-HPLC). To be noted: for Percent Elongation of 18:3n-6 to 20:3: product 20:3n-6; for Percent Elongation of 18:3n-6 to 22:3: product 22:3n-6.
Excerpt: as §2, §3, §4, §5, §6
The subject of test [8] is 20:4n-6. As to the kind of experiment: Elongation of [1-14C]20:4n-6 in yeast expressing human elongases (RP-HPLC). As to conditions: untagged elongase, 25 μM substrate.
Excerpt: as §2, §3, §4, §5, §6
Test [9] concerns 20:5n-3. Briefly: Elongation of [1-14C]20:5n-3 in yeast expressing human elongases (RP-HPLC). As to conditions: untagged elongase; 25 μM substrate; product 22:5n-3.
Excerpt: as §2, §3, §4
Alternatively, cells were resuspended in 1.5 ml of water and saponified with 2 ml of 10% KOH in ethanol. The total lipid extracts or the free fatty acids from the saponified samples were methylated using boron trifluoride in methanol at 90° C. for 30 min. The resultant methyl esters (FAME) were analyzed as described below. […]
Setting [10] is: untagged elongase, 25 μM substrate.

These results are taken from patent US7297523B2, “Human elongase genes and uses thereof” (Xenon Pharmaceuticals Inc., priority 2000, dated 2007).

In the case of `CN(N=O)C(=O)N[C@H]1C(O)O[C@H](CO)[C@@H](O)[C@@H]1O` (stereo partly drawn) [STZ, 2-desoxy-2-methylnitrosoamino carbonyl amino-D-glucopyranose], the “% Decrease of D5D activity (20:3n-6 → 20:4n-6)” value in test [1] (2 weeks post-induction) was 33%; in [1] (7 weeks post-induction), 41%. Also, the “Conversion of 18:3n-6 into 20:3n-6” value in test [2] (2 weeks post-induction, incubation time 0 h) is recorded as 0 pmol of 20:3n-6 produced/mg cellular protein; in [2] (2 weeks post-induction, incubation time 0.16 h, mean ± S.D. of 6 rats), 50 ± 8 pmol of 20:3n-6 produced/mg cellular protein; in [2] (2 weeks post-induction, incubation time 0.5 h, mean ± S.D. of 6 rats) it was 115 ± 26 pmol of 20:3n-6 produced/mg cellular protein; in [2] (2 weeks post-induction, incubation time 1 h, mean ± S.D. of 6 rats), 288 ± 23 pmol of 20:3n-6 produced/mg cellular protein; in test [2] (7 weeks post-induction, incubation time 0 h), 0 pmol of 20:3n-6 produced/mg cellular protein; in test [2] (7 weeks post-induction, incubation time 0.16 h, mean ± S.D. of 6 rats), 37 ± 9 pmol of 20:3n-6 produced/mg cellular protein. Moreover, the “Conversion of 18:3n-6 into 20:3n-6” value was 112 ± 10 pmol of 20:3n-6 produced/mg cellular protein in test [2] (7 weeks post-induction, incubation time 0.5 h, mean ± S.D. of 6 rats); 190 ± 92 pmol of 20:3n-6 produced/mg cellular protein in test [2] (7 weeks post-induction, incubation time 1 h, mean ± S.D. of 6 rats); 1008 ± 98 pmol of 20:3n-6 produced/mg cellular protein in test [2] (7 weeks post-induction, incubation time 24 h, mean ± S.D. of 6 rats). Also, the “activity of the elongation system (18:3n-6 into 20:3n-6)” value in test [2] (STZ group versus control, regardless of the time after the last I.P. STZ injection) was “significant increase”. For the same molecule, the results for the “% Decrease of D6D activity (18:2n-6 → 18:3n-6)” value in test [3] (2 weeks post-induction) and in test [3] (7 weeks post-induction) were 28% and 33%, respectively. Besides, the “Conversion of 18:2n-6 into 20:2n-6” value in [4] (2 weeks post-induction) is 322 ± 119 pmol of 20:2n-6 produced/mg cellular protein; in [4] (7 weeks post-induction) it was 147 ± 22 pmol of 20:2n-6 produced/mg cellular protein. Moreover, in [4] (leukocytes from animals sacrificed 7 weeks after the STZ treatment), the “changes in the elongation of 18:2n-6 to 20:2n-6” value is “no significant changes”. Further, the “reduction in the elongation of 18:2n-6 to 20:2n-6” value in test [4] (leukocytes obtained 2 weeks after the STZ injection) is “approximately 50%”. In addition, the “% Decrease of Elongase activity (18:3n-6 → 20:3n-6)” value in test [5] (2 weeks post-induction) turned out to be 46%; in [5] (7 weeks post-induction), 43%.

B1: ELG2: human PUFA elongase expressed in yeast from plasmid pTh1014.1 (protein, UniProt Q9NYP7 1-299, looked up)
Very long chain fatty acid …: MEHFDASLSTYFKALLGPRDTRVKGWFLLDNYIPTFICSVIYLLIVWLGPKYMRNKQPFSCRGILVVYNLGLTLLSLYMFCELVTGVWEGKYNFFCQGTRTAGESDMKIIRVLWWYYFSKLIEFMDTFFFILRKNNHQITVLHVYHHASMLNIWWFVMNWVPCGHSYFGATLNSFIHVLMYSYYGLSSVPSMRPYLWWKKYITQGQLLQFVLTIIQTSCGVIWPCTFPLGWLYFQIGYMISLIALFTNFYIQTYNKKGASRRKDHLKDHQNGSMAAVNGHTNSFSPLENNVKPRKLRKD
As for B1, in test [6], the “Percent Elongation of 18:3n-3 to 20:3” value stood at 16%. In test [7] (V5-His tagged elongase), the “Percent Elongation of 18:3n-6 to 20:3” value is listed as 73% and the “Percent Elongation of 18:3n-6 to 22:3” value turned out to be 11%. In test [7] (setting [10]), the “Percent Elongation of 18:3n-6 to 20:3” value turned out to be 62% and the “Percent Elongation of 18:3n-6 to 22:3” value worked out at 3%. Moreover, the “Percent Elongation of 20:4n-6 to 22:4” value in [8] (product 22:4n-6) stood at 39%. Moreover, in test [8] (product 24:4n-6), the “Percent Elongation of 20:4n-6 to 24:4” value is given as 1%. Moreover, the “Percent Elongation of 20:5n-3 to 22:5” value in test [9] is 59%.
